Marks after values point to notes of the source that are not given here.

Experiment [1] deals with long-term rat monocrotaline in vivo model. Put plainly: long-term rat monocrotaline model, survival. On the set-up: species or system rat (Sprague Dawley). The following applies: monocrotaline 40 mg/kg SC day 0; therapy from two weeks post-monocrotaline for 5 weeks; antibodies 40 mg/kg SC 2x/wk, macitentan 30 mg/kg PO daily; n=10. How it is done: To evaluate the survival benefit of anti-Activin A antibody in a pulmonary arterial hypertension model, a long-term rat monocrotaline in vivo model was used.
Six-to-seven week old Sprague Dawley rats were used. Rats were separated into treatment groups such that body weights were similar among different groups. Rats were subcutaneously administered either 40 mg/kg of monocrotaline or 5 mL/kg of saline at day 0. At 14 days post-injection, saline-injected rats were subcutaneously treated with saline at 5 mL/kg, twice a week for 5 weeks, unless they died prematurely.
The monocrotaline-injected rats were separated into 4 groups. One group (n=10) was orally administered macitentan at 30 mg/kg daily. A second group (n=10) was subcutaneously administered saline at 5 mL/kg twice a week. A third group (n=10) was subcutaneously treated with either an isotype control antibody, H4H6334P. A fourth group (n=10) was subcutaneously treated with the anti-Activin A antibody, H4H10446P2, at 40 mg/kg twice a week. These monocrotaline-treated rats were started on therapy at two weeks post-monocrotaline and continued for 5 weeks, unless the animal died prematurely.
Animals were monitored twice a day for signs of morbidity or mortality. Based on literature searches, 5-8 weeks after monocrotaline injection is typically a time where morbidity and mortality are likely. […]

Experiment [2] concerns rat model of pulmonary hypertension induced by monocrotaline. Description: rat model of pulmonary hypertension induced by monocrotaline. The class given is in vivo, rat (Sprague Dawley). How it is done:
To further evaluate the effect of anti-Activin A antibodies in pulmonary arterial hypertension, a rat model of pulmonary hypertension induced by monocrotaline was used.
Six to seven week old Sprague Dawley rats were used. Rats were separated into treatment groups such that body weights were similar among different groups. Rats were subcutaneously administered either 40 mg/kg of monocrotaline or 5 mL/kg of saline at day 0. At 14 days post injection, saline-injected rats were orally dosed with PEG 400 (at 50:50 v/v, Affymetrix Inc., #19957) at 5 mL/kg daily for two weeks, and monocrotaline-injected rats were separated into 5 groups with a group (n=9) orally dosed with PEG 400 at 5 mL/kg daily for two weeks, another group (n=12) orally administered macintentan at 30 mg/kg daily for two weeks, and three groups that were both orally dosed with PEG 400 at 5 mL/kg daily for two weeks and subcutaneously treated with either anti-Activin A antibodies, H4H10430P (n=9), H4H10446P2 (n=11), or an isotype control antibody (n=10) at 40 mg/kg twice a week for two weeks.
At day 27, pulmonary artery size and right ventricular function and dimensions of the rats were assessed using a high frequency ultrasound system (Vevo 2100, VisualSonics). For the assessment, rats were anesthetized (with 1.5% isoflurane at a rate of 1.0 cc/mL of medical grade air) and their temperature was monitored with a rectal temperature probe and held at approximately 37° C. with a heated platform (Vevo 2100, Visualsonics) and a warming lamp. Both brightness-mode (B-mode) and motion-mode (M-mode) imaging were used. B-mode imaging of the rat heart in cross-section was used to determine pulmonary artery cross-sectional area (PA CSA) at the level of the pulmonary valve. […] was used to determine the pulsed wave velocity time integral (VTI), which is derived from the area under the curve of representative Doppler tracings of blood flow through the pulmonary artery. Right ventricular stroke volume (RV SV) was calculated from the product of PA CSA and VTI. Right ventricular cardiac output (RV CO) was calculated from the product of SV and heart rate (HR). M-mode imaging was used to determine right ventricular free wall (RVFW) thickness during diastole and systole. Animals were returned to their home cages before right ventricular pressure assessment.
Right ventricular pressure was subsequently assessed for all treatment groups. Rats were anesthetized with isoflurane and were kept at approximately 37° C. using a platform (Heated Hard Pad 1, Braintree Scientific) and circulating heated water pump (T/Pump Classic, Gaymar Industries). The neck area for each rat was prepared for surgery by depilating over the right common carotid artery and right jugular vein. An incision was made and the right jugular vein was isolated with care as to not damage the carotid artery and/or the Vagus nerve. A piece of 5-0 silk suture was placed under the isolated jugular vein to allow for retraction of the vessel cranially, then a 26-guage needle was used to introduce a hole into the jugular vein. A pressure catheter (Micro-tip catheter transducer SPR-1000, Millar Instruments, Inc.) was inserted into the opening of the jugular vein and advanced past the right atrium into the right ventricle. The catheter was connected to pressure/volume instrument (MPVS-300, Millar Instruments, Inc.) that measured heart rate as well as both diastolic and systolic right ventricular pressures. These parameters were digitally acquired using a data acquisition system (PowerLab 4/35, ADlnstruments). LabChart Pro 7.0 software (ADlnstruments) was used to analyze right ventricular pressures. Readings were quantified from a 60 second interval of the pressure tracing (following a 2 minute period of recording to allow for pressure stabilization). The parameters analyzed were RV diastolic and systolic pressures, heart rate and ventricular contractile function. […]

[3] abbreviates: monocrotaline 40 mg/kg SC day 0, antibodies 40 mg/kg SC 2x/wk, macitentan 30 mg/kg PO daily from day 14 for two weeks, ultrasound day 27.

With `CCCNS(=O)(=O)Nc1ncnc(OCCOc2ncc(Br)cn2)c1-c1ccc(Br)cc1` [Macitentan], in experiment [1], the “mortality (animals that died during the study)” value was “Forty”. For the same molecule, in experiment [2] (setting [3]), the “PA CSA (Ave ± SEM)” value is on record as 9.458 ± 0.476** mm^2; the “Right Ventricular cardiac output (Ave ± SEM)” value is 127.8 ± 11.7 mL/min; the “Stroke Volume (Ave ± SEM), right ventricular” value turned out to be 371.6 ± 27.9 µL. Moreover, in experiment [2] (monocrotaline exposed rats), the “effect on right ventricular cardiac output (in words)” value is recorded as “partially restored cardiac output”. In experiment [2] (monocrotaline-injected rats, FIG. 3A), the “effect on PA CSA (in words)” value was “restored PA CSA to that of saline-injected rats”. The “effect on right ventricular stroke volume (in words)” value in experiment [2] (monocrotaline-injected rats, FIG. 3B) is recorded as “partially restored stroke volume”. In addition, the “effect on right ventricular hypertrophy, Fulton Index RV/(LV+S) (in words)” value in experiment [2] (monocrotaline-injected rats, FIG. 3C) is reported as “did not lessen right ventricular hypertrophy”. In addition, the “effect on elevation of right ventricular pressures (in words)” value in experiment [2] (monocrotaline-injected rats, catheter-based assessment, FIG. 3D) is reported as “none of the treatment groups (Macitentan or anti-Activin A groups) showed attenuation in the elevation of right ventricular pressures”.
